Measured values published in patent US20230295181A1, “INHIBITOR OF APOPTOSIS (IAP) PROTEIN ANTAGONISTS” (Sanford Burnham Prebys Medical Discovery Institute, priority 2020, published 2023).
Where a name gives a salt, the structure may show the parent alone.

Assays:
[1] = target: XIAP-BIR3 (Homo sapiens (Human), UniProt P98170); assay: Fluorescence polarization (FP) assay, inhibition of SMAC peptide binding
Protocol: Compounds of the present disclosure were evaluated for potency and selectivity in a fluorescence polarization (FP) assay that measures inhibition of SMAC peptide binding to ML-IAP. To measure SMAC peptide binding, multi-well plate format FP assays based on the ability of SMAC peptides to bind the BIR domains of several IAPs are used to generate IC50 and Ki values for analogues. The FP assays utilize plasmid constructs encoding various full length IAPs or fragments for expression as either GST or His6-fusion proteins in bacteria. Compounds are evaluated for activity against several members of the IAP family, including the BIR domains of XIAP, cIAP1 and cIAP2 in order to generate selectivity profiles of the compounds disclosed herein. These assays also enable the identification and characterization of potency profiles of ML-IAP binding.
Activity of the compounds are indicated according to the following legend: […]

[2] = test system: SKOV-3; assay: Cell viability (CellTiterGlo), SKOV-3; type: cell-based; conditions: Homo sapiens, SK-OV-3
Protocol: (§1) Candidate compounds are tested in 384-well plates for effects on cell viability in the presence or absence of an appropriate conventional anticancer drug. Cell viability is indirectly monitored in the first instance using CellTiterGlo (Promega Corp., Madison, WI) (Table D). To determine if cell death is apoptotic, the induction of caspase activity is assessed utilizing the CaspaseGlo Assay system (Promega Corp., Madison, WI) (Table E). Cell viability is monitored 1 to 3 days after addition of compounds and conventional drugs. […] A compound of any of the formulae as disclosed herein is evaluated in combination with said anticancer drug to determine which ML-IAP antagonist can sensitize most efficaciously. Select candidate compounds are tested in 14 point drug dose response (DDR) curves in a 384-well format in order to establish potency in combination with decreasing concentrations of lung cancer relevant drug regimens. Furthermore, checker-board titrations of a conventional drug and the candidate molecules are performed to search for synergy (using ISOBOLOGRAM analysis). Compounds and combinations as described herein are also tested for cytotoxicity against normal human cells (e.g. primary fibroblasts, lymphocytes, hepatocytes, epithelial and endothelial cells) using known methods.
(§2) Cell viability was evaluated following treatment with a compound as disclosed in Table D. Viability of cancer cells following treatment is indicated according to the following legend: […]

[3] = test system: OVCAR-4; assay: Cell viability (CellTiterGlo), OVCAR-4; type: cell-based; conditions: Homo sapiens
Protocol: as §1, §2

[4] = test system: Caspase 3/7 (SKOV-3); assay: Induction of caspase 3/7 activity (CaspaseGlo), SKOV-3; type: cell-based; conditions: Homo sapiens, SK-OV-3
Protocol: as §1
(§3) The induction of caspase activities was tested with a compound as disclosed in Table E. The activities are indicated according to the following legend: […]

[5] = test system: Caspase 3/7 (OVCAR-4); assay: Induction of caspase 3/7 activity (CaspaseGlo), OVCAR-4; type: cell-based; conditions: Homo sapiens
Protocol: as §1, §3

[6] = test system: Caspase 9 (SKOV-3); assay: Induction of caspase 9 activity (CaspaseGlo), SKOV-3; type: cell-based; conditions: Homo sapiens, SK-OV-3
Protocol: as §1, §3

[7] = In vivo PK plasma exposure in mice
Protocol: Pharmacokinetic (PK) studies are performed in vivo in mice for compounds as described herein. Standard formulations are evaluated, including hydroxypropyl methylcellulose, carboxymethylcellulose, and polyethylene glycol. For intravenous studies, compounds are administered via indwelling catheters in jugular vein and samples collected from the carotid artery. These experiments provide basic pharmacokinetic parameters including peak plasma concentration (Cmax), bioavailability (% F), exposure (AUC), half-life (t½), clearance (CL), volume of distribution (Vd), and brain levels. To measure bioavailability, a compound as described herein is administered to three animals/group, both orally (10 mg/kg) and intravenously (1 mg/kg). Intraperitoneally administration is also assessed in order to determine both brain and plasma levels of compounds.
The compounds described herein were tested in vivo in mice to measure PK plasma exposure as shown in Table F. The PK plasma values are indicated according to the following legend: […]

[8] = test system: H460 lung cancer cells; assay: Sensitization of lung cancer cells to standard of care treatment (vinorelbine); type: cell-based; conditions: combination with vinorelbine, FIG. 1
Protocol: In order to assess the role of ML-IAP antagonists in cancer treatment, H460 lung cancer cells are treated with a standard of care treatment (e.g., vinorelbine) alone or in combination with a selective ML-IAP antagonist. […] The leftward shift in the dose dependent response (DDR) curve indicates a resensitization of lung cancer cells to the anti-cancer agent. Furthermore, TNF induction is absent following treatment with a compound described herein in breast cancer MDA-MB-231 cells. This effect provides a substantial advantage clinically as it avoids an inappropriate inflammatory response.

[9] = test system: SKOV-3 cancer cell lines; assay: SKOV-3 cell viability after treatment with 10 μM test compound; type: cell-based
Protocol: SKOV-3 cancer cell lines were treated with a test compound, either as a pure enantiomer or a mixture of stereoisomers, at a concentration of 10 μM. Cell viability was evaluated following treatment with a compound as disclosed in Table B. Viability of cancer cells following treatment is indicated according to the following legend:
A=0-25% viability B=26-50% viability C=>50% viability

Chain of XIAP-BIR3 (P98170 241-356): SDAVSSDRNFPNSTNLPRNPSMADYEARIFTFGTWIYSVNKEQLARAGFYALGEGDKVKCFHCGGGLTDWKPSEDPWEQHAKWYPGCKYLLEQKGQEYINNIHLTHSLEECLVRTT

| Compound | Ki [1] [nM] | IC50 [2] [nM] | IC50 [3] [nM] | EC50 [4] [nM] | EC50 [5] [nM] | EC50 [6] [nM] | PK plasma exposure at 1 h (IP, 10 mg/kg) [7] | sensitizing effect on lung cancer cells [8] | viability at 10 µM ([9]; Homo sapiens, SK-OV-3, 10 micromolar test compound, SKOV-3 cells) [%] | % viability after treatment with 10 micromolar of test compound (SKOV-3 cells) ([9]; 10 micromolar test compound, hydrochloride) |
| --- | --- | --- | --- | --- | --- | --- | --- | --- | --- | --- |
| CN[C@@H](C)C(=O)N[C@H]1CCS[C@H]2CC(C)(C)C(C(=O)N[C@@H]3CCCc4ccccc43)N2C1=O (stereo partly drawn) [Compound A, (4S,9aS)-8,8-dimethyl-4-((S)-2-(methylamino)propanamido)-5-oxo-N—((R)-1,2,3,4-tetrahydronaphthalen-1-yl)octahydropyrrolo[2,1-b][1,3]thiazepine-7-carboxamide hydrochloride] | 10 to 100 | 1 to 10 | 1 to 10 | 1 to 10 | 1 to 10 | < 1 | iii (iii=500-1000 nM) | sensitizing effect | – | – |
| CN[C@@H](C)C(=O)N[C@H]1CCS[C@H]2CC3(CCCC3)[C@@H](C(=O)N[C@@H]3CCCc4ccccc43)N2C1=O [Compound 80, (4'S,7'S,9a'S)-4′-((S)-2-(methylamino)propanamido)-5′-oxo-N—((R)-1,2,3,4-tetrahydronaphthalen-1-yl)hexahydro-7′H-spiro[cyclopentane-1,8′-pyrrolo[2,1-b][1,3]thiazepine]-7′-carboxamide hydrochloride] | 10 to 100 | < 1 | 1 to 10 | < 1 | < 1 | < 1 | iii (iii=500-1000 nM) | – | 0 to 25 | – |
| CCC1(CC)C[C@@H]2SCC[C@H](NC(=O)[C@H](C)NC)C(=O)N2C1C(=O)N[C@@H]1CCCc2ccccc21 (mixture of isomers) [Compound 38, (4S,9aS)-8,8-diethyl-4-((S)-2-(methylamino)propanamido)-5-oxo-N—((R)-1,2,3,4-tetrahydronaphthalen-1-yl)octahydropyrrolo[2,1-b][1,3]thiazepine-7-carboxamide hydrochloride] | > 100 | 10 to 100 | 10 to 100 | 1 to 10 | 1 to 10 | 1 to 10 | iii (iii=500-1000 nM) | – | – | A (A=0-25% viability) |
